Source: US20170165317A1, “METHOD FOR MITIGATING OR ALLEVIATING SYNAPTIC AND COGNITIVE DEFICITS” (Trustees of Dartmouth College, priority 2013, published 2017)

What was measured:
[1] = test system: APP/PS1 mice; test: Hippocampal APP, C-terminal fragments, Aβ monomers and SDS-resistant Aβ assemblies after in vivo treatment (western blot, ELISA); parameters: species or system mouse; conditions: after VO-OHpic treatment, end of last behavioural test
Protocol: (§1) Hippocampal slices overexpressing Aβ were maintained for 3 days after virus injection with or without the PTEN inhibitor VO-OHpic, before culture medium was collected for measurements. Aβ40 and Aβ42 level were determined in solubilized hippocampal fractions, cultured hippocampal slices or conditioned media by ELISA according to the manufacturer's instructions (WAKO/Invitrogen) that specifically detect the C-terminus of Aβ40 and Aβ42, respectively.
Hippocampi from APP/PS1 mice or their wild-type littermates and organotypic hippocampal slices infected with APPswe/lnd-EGFP/APPwt-EGFP/APPMV-EGFP were solubilized, and extracts were prepared for western blot analysis. Mouse brains or brain sections were homogenized on ice in RIPA buffer (1% TRITON X-100, 1% sodium deoxycholate, 0.1% SDS, 150 mM NaCl, 50 mM Tris-HCl, pH 7.2), using an ULTRATURRAX T25 (Janke & Kunkel). Samples were centrifuged at 15,000×g, and supernatants were used for protein determination. APPsα was detected in conditioned media of the respective slices using antibody 6E10 that selectively detects human APPsα. Levels of APP, CTFα and CTFβ were detected in lysates of the infected slices using APPCt antibody.
After the end of the last test, the levels of APP and its C-terminal fragments (western blot), Aβ monomers (ELISA), and SDS-resistant. Aβ assemblies (SDS-PAE) were measured from the hippocampus of each mouse. […]

[2] = test system: PTEN; test: phospho-Akt and phospho-Tyr levels in acute hippocampal slices; format: cell-based, mice
[3] = test system: APPswe/lnd-expressing neurons; test: Paired whole-cell recording of AMPAR-mediated EPSCs in APPswe/lnd-expressing CA1 neurons of organotypic hippocampal slices; format: cell-based, rat; conditions: 15 nM bPV(HOpic) or 50 nM VO-OHpic during expression
Protocol: The effect of recombinant protein expression on synaptic transmission was evaluated by simultaneous double whole-cell recordings from pairs of nearby infected and uninfected CA1 neurons, under voltage clamp, while stimulating presynaptic Schaffer collateral fibers (under this configuration, recombinant proteins are expressed exclusively in the postsynaptic neuron).
(§2) The different versions of APP (APPwt, APPswe/lnd APPMV) and EGFP were co-expressed using an internal ribosomal entry site (IRES) construct. The EGFP-tagged versions of PTEN have been described (Jurado, et al. (2010) EMBO J. 29:2827-2840). All constructs were prepared in pSinRep5 for expression using Sindbis virus. Recombinant proteins were expressed in hippocampal CA1 pyramidal neurons from organotypic slice cultures. Organotypic hippocampal slices were prepared from postnatal day 5-7 rats and cultured during 6-8 days.
The external solution (aCSF) contained 119 mM NaCl, 2.5 mM KCl, 1 mM NaH2PO4, 11 mM glucose, 26 mM NaHCO3, 4 mM MgCl2, 4 mM CaCl2, 100 μM picrotoxin and 2 μM 2-chloroadenosine, pH 7.4, and was gassed with 95% O2 and 5% CO2. […] Bipolar stimulating electrodes were placed over Schaffer collateral fibers between 250 and 300 μm from the CA1 recorded cells, and synaptic responses were evoked with single voltage pulses (200 μs, up to 30 V). […]

[4] = test system: CA1 individual neurons; test: Whole-cell LTP (pairing protocol) in CA1 neurons of organotypic slices with APPswe/lnd-EGFP expression; format: cell-based, rat; conditions: VO-OHpic 26-48 hours
Protocol: as §2
The external solution (aCSF) contained 119 mM NaCl, 2.5 mM KCl, 1 mM NaH2PO4, 11 mM glucose, 26 mM NaHCO3, 4 mM MgCl2, 4 mM CaCl2, 100 μM picrotoxin and 2 μM 2-chloroadenosine, pH 7.4, and was gassed with 95% O2 and 5% CO2. Patch recording pipettes (4-7 MO) were filled with internal solution containing 115 mM CsMeSO3, 20 mM CsCl, 10 mM HEPES, 2.5 mM MgCl2, 4 mM Na2-ATP, 0.4 mM Na-GTP, 10 mM sodium phosphocreatine and 0.6 mM EGTA, pH 7.25. Bipolar stimulating electrodes were placed over Schaffer collateral fibers between 250 and 300 μm from the CA1 recorded cells, and synaptic responses were evoked with single voltage pulses (200 μs, up to 30 V). Responses were collected at −60 mV and +40 mV and averaged over 50-100 trials. LTP was induced using a pairing protocol by stimulating Schaffer collateral fibers at 3 Hz for 1.5 minutes while depolarizing the postsynaptic cell at 0 mV. All electrophysiological data were collected with pCLAMP software (Molecular Devices). Immunohistochemistry For the immunostaining protocol, hippocampal slice cultures were fixed with 4% paraformaldehyde for 24 hours washed in PBS and blocked with 5% horse serum for 2 hours. Sections were then incubated for 48 hours at 4° C. with primary antibody. […]
(§3) However, this form of depression may in principle be due to Aβ exposure, to intracellular fragments derived from APP processing, or a combination thereof. To test the role of PTEN specifically in the effects of neuron-secreted Aβ, synaptic dysfunctions were monitored in untransfected cells neighboring APPswe/lnd-expressing neurons. […]

[5] = test system: APPswe/lnd-EGFP infected neurons; test: APP expression, APP fragments and Aβ production/secretion in APPswe/lnd-infected slice cultures (ELISA, western blot); format: cell-based, rat; conditions: slice cultures with or without PTEN inhibitor
Protocol: as §1
Hippocampi from APP/PS1 mice or their wild-type littermates and organotypic hippocampal slices infected with APPswe/lnd-EGFP/APPwt-EGFP/APPMV-EGFP were solubilized, and extracts were prepared for western blot analysis. […] APPsα was detected in conditioned media of the respective slices using antibody 6E10 that selectively detects human APPsα. Levels of APP, CTFα and CTFβ were detected in lysates of the infected slices using APPCt antibody. […]
as §3

O=C(O)c1ncccc1O.O=C(O)c1ncccc1O.[O]=[V][O-] [VO-OHpic]
levels of APP and its C-terminal fragments, Aβ monomers and SDS-resistant Aβ assemblies in hippocampus [1]: No changes were detected | phospho-Akt (PIP3 downstream effector) [2]: upregulation | phospho-Tyr levels (specificity versus Tyr phosphatases) [2]: lack of effect | AMPAR-mediated EPSCs in APPswe/lnd-expressing neurons relative to uninfected cells [3]: no longer depressed | LTP potentiation, APPswe/lnd-EGFP infected cells ([4]; P=0.01): 220% | LTP potentiation, uninfected cells exposed to Aβ ([4]; uninfected neurons adjacent to infected cells, P=0.0006): 339% | magnitude of LTP in control slices ([4]; slices not exposed to APPswe/lnd-EGFP virus): did not affect the magnitude of LTP | recombinant APP expression, formation of C-terminal APP fragments, Aβ production/secretion [5]: independent of VO-OHpic treatment
